# Values quoted from earlier work, collected in patent US8647676B2, “Antimicrobial composition from copepods” (priority 2008, dated 2014).
# Details: Iwamoto et al. Tetrahedron, 1999 vol. 55 p. 14353
substance,measurement,value
penostatin,cytotoxicity (in words),mild cytotoxic
